Data on 30 molecules can be found in ChEMBL document CHEMBL1140195, “Synthesis, screening for antitubercular activity and 3D-QSAR studies of substituted N-phenyl-6-methyl-2-oxo-4-phenyl-1,2,3,4-tetrahydro-pyrimidine-5-carboxamides” (2008).

Holding throughout (type): functional
In test [1] the test system is Mycobacterium tuberculosis. As to the kind of experiment: Antitubercular activity against Mycobacterium tuberculosis H37Rv.
Test [2] concerns Mycobacterium tuberculosis. As to the kind of experiment: Antitubercular activity against Mycobacterium tuberculosis H37Rv at 6.25 ug/mL relative to control.
For test [3], the system named is Mycobacterium tuberculosis. Briefly: Antitubercular activity against Mycobacterium tuberculosis.

Converted amounts (≈) assume the structure as drawn. Some results are limits rather than exact numbers.

As to `CC1=C(C(=O)Nc2ccccc2F)C(c2ccc([N+](=O)[O-])cc2)NC(=O)N1` (centres undefined), the MIC (in general, the lowest concentration that inhibits growth of the organism) in test [1] was over 6.25 µg/mL. Moreover, the inhibition (as a rule, the percentage by which the read-out fell short of the control) at 6.25 µg/mL in test [2] turned out to be 4%.
In turn, `CC1=C(C(=O)Nc2ccc(C)c(C)c2)C(c2ccc([N+](=O)[O-])cc2)NC(=O)N1` (centres undefined) came in with an MIC in test [1] of over 6.25 µg/mL. In test [2], this molecule had an inhibition at 6.25 µg/mL of 13%.
On the same counts, the results for `CC1=C(C(=O)Nc2ccc(F)c(Cl)c2)C(c2cccc([N+](=O)[O-])c2)NC(=O)N1` (centres undefined) are over 6.25 µg/mL and 29%.
On the same counts, the results for `CC1=C(C(=O)Nc2ccccc2F)C(c2cccc([N+](=O)[O-])c2)NC(=O)N1` (centres undefined) are over 6.25 µg/mL and 24%.
The like results for `CC1=C(C(=O)Nc2ccc(F)cc2)C(c2cccc(Cl)c2)NC(=O)N1` (centres undefined) were, in that order, over 6.25 µg/mL and 38%.
Consider `CC1=C(C(=O)Nc2ccccc2Cl)C(c2ccccc2[N+](=O)[O-])NC(=O)N1` (centres undefined), for which the MIC in test [1] is over 6.25 µg/mL. This molecule gave an inhibition at 6.25 µg/mL in test [2] of 11%.
The like results for `CC1=C(C(=O)Nc2cc(C)ccc2C)C(c2cccc(Oc3ccccc3)c2)NC(=O)N1` (centres undefined) were, in that order, over 6.25 µg/mL and 27%.
The like results for `CC1=C(C(=O)Nc2cccc(C)c2C)C(c2cccc(Oc3ccccc3)c2)NC(=O)N1` (centres undefined) were, in that order, over 6.25 µg/mL and 65%.
The like results for `CC1=C(C(=O)Nc2ccccc2Cl)C(c2ccc(Cl)cc2)NC(=O)N1` (centres undefined) were, in that order, over 6.25 µg/mL and 26%.
The molecule `CC1=C(C(=O)Nc2ccccc2)C(c2ccc([N+](=O)[O-])cc2)NC(=O)N1` (centres undefined) displayed a minimal inhibitory concentration (MIC) in test [1] of over 6.25 µg/mL. In test [2], this molecule registered an inhibition at 6.25 µg/mL of 25%.
On the same counts, the results for `CC1=C(C(=O)Nc2ccc(Cl)cc2)C(c2cccc([N+](=O)[O-])c2)NC(=O)N1` (centres undefined) are over 6.25 µg/mL and 29%.
On the same counts, the results for `CC1=C(C(=O)Nc2ccc(F)cc2)C(c2cccc([N+](=O)[O-])c2)NC(=O)N1` (centres undefined) are over 6.25 µg/mL and 30%.
On the same counts, the results for `CC1=C(C(=O)Nc2ccccc2C)C(c2cccc([N+](=O)[O-])c2)NC(=O)N1` (centres undefined) are over 6.25 µg/mL and 6%.
Molecule `CC1=C(C(=O)Nc2ccc(C)c(C)c2)C(c2cccc(Oc3ccccc3)c2)NC(=O)N1` (centres undefined) had an MIC in test [1] of over 6.25 µg/mL. Further, in test [2], the inhibition at 6.25 µg/mL is 32%.
On the same counts, the results for `CC1=C(C(=O)Nc2cc(C)ccc2C)C(c2ccc([N+](=O)[O-])cc2)NC(=O)N1` (centres undefined) are over 6.25 µg/mL and 4%.
The molecule `CC1=C(C(=O)Nc2cc(C)ccc2C)C(c2ccc(Cl)cc2)NC(=O)N1` (centres undefined) displayed an MIC in test [1] of over 6.25 µg/mL. The molecule also returned an inhibition at 6.25 µg/mL in test [2] of 6%.
The like results for `CC1=C(C(=O)Nc2ccccc2F)C(c2ccc(O)cc2)NC(=O)N1` (centres undefined) were, in that order, over 6.25 µg/mL and 18%.
The like results for `CC1=C(C(=O)Nc2ccc(C)cc2C)C(c2ccc(O)cc2)NC(=O)N1` (centres undefined) were, in that order, over 6.25 µg/mL and 12%.
On the same counts, the results for `CC1=C(C(=O)Nc2cccc([N+](=O)[O-])c2)C(c2ccc(O)cc2)NC(=O)N1` (centres undefined) are over 6.25 µg/mL and 2%.
`CC1=C(C(=O)Nc2ccc(F)c(Cl)c2)C(c2ccc([N+](=O)[O-])cc2)NC(=O)N1` (centres undefined): the MIC in test [1] was over 6.25 µg/mL. The molecule also registered an inhibition at 6.25 µg/mL in test [2] of 22%.
The like results for `CC1=C(C(=O)Nc2ccccc2Cl)C(c2cccc([N+](=O)[O-])c2)NC(=O)N1` (centres undefined) were, in that order, over 6.25 µg/mL and 26%.
The like results for `CC1=C(C(=O)Nc2ccc(F)c(Cl)c2)C(c2cccc(Cl)c2)NC(=O)N1` (centres undefined) were, in that order, over 6.25 µg/mL and 48%.
The like results for `CC1=C(C(=O)Nc2ccc(C)cc2C)C(c2ccc([N+](=O)[O-])cc2)NC(=O)N1` (centres undefined) were, in that order, over 6.25 µg/mL and 12%.
In turn, `CC1=C(C(=O)Nc2ccc(C)cc2)C(c2cccc([N+](=O)[O-])c2)NC(=O)N1` (centres undefined) yielded a minimal inhibitory concentration (MIC) in test [1] of over 6.25 µg/mL. This molecule gave an inhibition at 6.25 µg/mL in test [2] of 28%.
On the same counts, the results for `CC1=C(C(=O)Nc2ccc(Cl)cc2)C(c2ccc([N+](=O)[O-])cc2)NC(=O)N1` (centres undefined) are over 6.25 µg/mL and 9%.
The like results for `CC1=C(C(=O)Nc2cc(Cl)ccc2Cl)C(c2ccc([N+](=O)[O-])cc2)NC(=O)N1` (centres undefined) were, in that order, over 6.25 µg/mL and 18%.
Molecule `CC1=C(C(=O)Nc2ccc(C)c(C)c2)C(c2cccc([N+](=O)[O-])c2)NC(=O)N1` (centres undefined) registered an MIC in test [1] of over 6.25 µg/mL. In test [2], this molecule came in with an inhibition at 6.25 µg/mL of 63%.
On the same counts, the results for `COc1ccc(NC(=O)C2=C(C)NC(=O)NC2c2ccc([N+](=O)[O-])cc2)cc1` (centres undefined) are over 6.25 µg/mL and 21%.
As for `COc1ccc(C2NC(=O)NC(C)=C2C(=O)Nc2cc(C)ccc2C)cc1` (centres undefined), in test [1], the MIC was over 6.25 µg/mL. In test [2], this molecule came in with an inhibition at 6.25 µg/mL of 2%.
`CCCc1cc(=O)oc2c3c(c4c(c12)OC(C)(C)C=C4)O[C@H](C)[C@@H](C)[C@@H]3O` [CALANOLIDE A] came in with a minimal inhibitory concentration (MIC) in test [3] of 3.13 µg/mL (≈ 8.45 µM).
